Measured values from article PMC12080252, “Daphnia magna as an Alternative Model for (Simultaneous) Bioaccumulation and Chronic Toxicity Assessment—Controlled Exposure Study Indicates High Hazard of Heterocyclic PAHs” (Environmental Science & Technology, 2025).
“And” between values parts separate entries of the source, which are not always exact repeats. Identical values can stand only once.

Key:
[1] = Chronic reproduction toxicity test (OECD 211) with passive dosing; assay type: in vivo, Daphnia magna; conditions: Daphnia magna, in vivo, other: waterborne exposure by passive dosing from PDMS disks, 21-day test, read-out: % offspring mortality of total offspring
Summary of the method: (§1)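 D. magna juveniles (<24 h) exposed individually 21 days by passive dosing from PDMS disks, static, 20 °C, 16:8 h light/dark, medium renewed three times weekly, fed daily; water concentrations measured initially and before renewal. Offspring per mother versus controls gave percent inhibition; EC10/EC20/EC50 from four-parameter logistic fit of log10 concentrations (Top 100, Bottom 0).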

[2] = tested on: Daphnia magna; assay: as above; assay type: in vivo; conditions: for EC10: 21-day reproduction inhibition; for % inhibition, avr.: average of vessels; for % inhibition (of reproduction, per vessel): relative to controls; for wet weight of parent daphnids, change relative to control: end of 21-d exposure
Summary of the method: as §1

[3] = cited from earlier work
[4] = Test 5-BCRB, avr. medium concentration 68.16 µg/L, 21 days
[5] = Test 5-BCRB, avr. medium concentration 68.16 µg/L, 21 days, one value per vessel

c1ccc2c(c1)ccc1[nH]c3ccccc3c12 [BCRB, 7H-benzo[c]carbazole]
mortality at 21 days, 4.1 µg/L ([1]; 4.1 µg/L (Fig. S8)): 3.3%
mortality at 21 days, 9.8 µg/L ([1]; 9.8 µg/L (Fig. S8)): 4%
mortality at 21 days, 21.8 µg/L ([1]; 21.8 µg/L (Fig. S8)): 2.9%
mortality at 21 days, 44.6 µg/L ([1]; 44.6 µg/L (Fig. S8)): 5.6%
mortality at 21 days, 68.2 µg/L ([1]; 68.2 µg/L (Fig. S8)): 32.4%
EC10 ([2]; 97.5-2.5% confidence interval in brackets): 15.0 (8.6-24.3) μg L^-1
EC10 ([2]; confidence interval in brackets): 69.2 (39.7-111.8) nmol L^-1
growth of parent D. magna (wet weight) ([2]; 21-day test, p-value <0.05): significantly inhibited D. magna growth
LOEC (lowest observed effect concentration, reproduction inhibition) ([2]; 21 days, p-value <0.05 vs controls): 9.8 μg L^–1
%offspring mortality ([2]; BCRB 3.99 µg/L, 21 days): 3.29%
% inhibition, avr. ([2]; BCRB 3.99 µg/L, 21 days): 0.7%
#average live offspring ([2]; BCRB 3.99 µg/L, 21 days, per mother): 83
#total live offspring ([2]; BCRB 3.99 µg/L, 21 days, sum of all vessels): 499
%offspring mortality ([2]; BCRB 9.55 µg/L, 21 days): 4.04%
% inhibition, avr. ([2]; BCRB 9.55 µg/L, 21 days): 15.0%
#average live offspring ([2]; BCRB 9.55 µg/L, 21 days, per mother): 71
% inhibition (of reproduction, per vessel) ([2]; BCRB 9.55 µg/L, 21 days, single vessels 1-6): 6.9%
#total live offspring ([2]; BCRB 9.55 µg/L, 21 days, sum of all vessels): 427
%offspring mortality ([2]; BCRB 21.94 µg/L, 21 days): 2.91%
% inhibition, avr. ([2]; BCRB 21.94 µg/L, 21 days): 20.4%
#average live offspring ([2]; BCRB 21.94 µg/L, 21 days, per mother): 67
#total live offspring ([2]; BCRB 21.94 µg/L, 21 days, sum of all vessels): 400
%offspring mortality ([2]; BCRB 43.46 µg/L, 21 days): 5.62%
% inhibition, avr. ([2]; BCRB 43.46 µg/L, 21 days): 39.8%
#average live offspring ([2]; BCRB 43.46 µg/L, 21 days, per mother): 50
% inhibition (of reproduction, per vessel) ([2]; BCRB 43.46 µg/L, 21 days, single vessels 2-6): 39.1% and 54.6% and 28.4% and 37.9%
#total live offspring ([2]; BCRB 43.46 µg/L, 21 days, sum of all vessels): 252
Survival of the mother animal ([2]; BCRB 43.46 µg/L, vessel 1, day 5): dead
Total #offspring per mother (live, per vessel) ([2]; BCRB avr. medium concentration 3.99 µg/L (methanol for dosing 0.063 g/L), 21 days, single vessels 1-6): 104 and 86 and 87 and 79 and 68 and 75
Total #offspring per mother (live, per vessel) ([2]; BCRB avr. medium concentration 9.55 µg/L (methanol for dosing 0.125 g/L), 21 days, single vessels 1-6): 68 and 63 and 78 and 79 and 61
Total #offspring per mother (live, per vessel) ([2]; BCRB avr. medium concentration 21.94 µg/L (methanol for dosing 0.25 g/L), 21 days, single vessels 1-6): 67 and 73 and 77 and 64 and 63 and 56
Total #offspring per mother (live, per vessel) ([2]; BCRB avr. medium concentration 43.46 µg/L (methanol for dosing 0.5 g/L), 21 days, single vessels 2-6): 51 and 38 and 60 and 52
EA50 (effective chemical activity) ([2]; EC50/subcooled liquid solubility, eq 1): 0.004 unitless
%offspring mortality [2, 4]: 32.43%
#total live offspring ([2]; Test 5-BCRB, avr. medium concentration 68.16 µg/L, 21 days, all vessels): 75
% inhibition, avr. [2, 4]: 82.1%
% inhibition (of reproduction, per replicate vessel) [2, 5]: 82.1% and 86.9% and 83.3% and 74.9%
Total #dead offspring per mother (per replicate vessel) [2, 5]: 9 and 2 and 8
#average live offspring ([2]; Test 5-BCRB, avr. medium concentration 68.16 µg/L, 21 days, per surviving mother): 15
Total #offspring per mother (per replicate vessel) ([2]; Test 5-BCRB, avr. medium concentration 68.16 µg/L, methanol dosing conc. 1 g/L, 21 days, one value per vessel): 15 and 11 and 14 and 21
Mother survival (parent mortality) ([2]; Test 5-BCRB, avr. medium concentration 68.16 µg/L, vessel 3, day 5): dead
CTLBB (critical target lipid body burden) ([2]; derived from chronic EC10 using eq 3): 12.6 μmol g^-1 octanol
wet weight of parent daphnids, change relative to control ([2]; 4.1 µg/L (Fig. S9)): +17%
wet weight of parent daphnids, change relative to control ([2]; 9.8 µg/L (Fig. S9)): -14%
wet weight of parent daphnids, change relative to control ([2]; 21.8 µg/L (Fig. S9)): -15%
wet weight of parent daphnids, change relative to control ([2]; 44.6 µg/L (Fig. S9)): -34%
wet weight of parent daphnids, change relative to control ([2]; 68.2 µg/L (Fig. S9)): -77%
swimming behavior ([2]; two highest exposure concentrations, 22 and 68 μg L^–1): induced locomotor changes
SW (water solubility) ([3]; measured in previous work): 0.80 µg/mL
log KOW ([3]; n-octanol-water partition coefficient): 5.22
log KOC ([3]; organic carbon-water partition coefficient): 4.84
